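In this assay, cells in 96-well plates receive the compound at five concentrations for 48 hours. Endpoints are linearly interpolated between the surrounding concentrations. TGI denotes the concentration required for complete inhibition of growth.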
Columns and labels:
Test in all cases: growth of human tumour cells (NCI), 48 h
COLO 205 colon = tested on: COLO 205 colon
DLD-1 colon = tested on: DLD-1 colon
DMS 114 small cell lung = tested on: DMS 114 small cell lung
DMS 273 small cell lung = tested on: DMS 273 small cell lung
HOP-18 NSCLC = tested on: HOP-18 NSCLC
KM20L2 colon = tested on: KM20L2 colon
LXFL 529 NSCLC = tested on: LXFL 529 NSCLC
M19-MEL melanoma = tested on: M19-MEL melanoma
RXF-631 renal = tested on: RXF-631 renal
SNB-78 CNS = tested on: SNB-78 CNS
XF 498 CNS = tested on: XF 498 CNS

| Structure (SMILES) | TGI (COLO 205 colon) [µM] | TGI (DLD-1 colon) [µM] | TGI (DMS 114 small cell lung) [µM] | TGI (DMS 273 small cell lung) [µM] | TGI (HOP-18 NSCLC) [µM] | TGI (KM20L2 colon) [µM] | TGI (LXFL 529 NSCLC) [µM] | TGI (M19-MEL melanoma) [µM] | TGI (RXF-631 renal) [µM] | TGI (SNB-78 CNS) [µM] | TGI (XF 498 CNS) [µM] |
| --- | --- | --- | --- | --- | --- | --- | --- | --- | --- | --- | --- |
| Cc1nc(N)c(-c2ccccc2)s1 | > 66.7 | > 100 | > 100 | > 100 | > 100 | > 100 | > 100 | > 100 | > 100 | > 100 | > 100 |
| CCN(CC)CCC1(C2CCCCC2)CCC(=O)NC1=O (stereo not drawn) | > 100 | > 100 | > 100 | > 100 |  | > 100 | > 100 | > 100 | > 100 | > 100 | > 100 |
| CC1(C)OCN(c2ccc(S(N)(=O)=O)cc2)Cn2c1nc1ccccc12 | > 100 | > 100 | > 100 | > 100 | > 100 | > 100 | > 100 | > 100 |  | > 100 | > 100 |
| C/C(=N/NC(=O)C[n+]1ccccc1)C(CN(CC(C)C)CC(C)C)C(=O)Nc1ccc(C)cc1C (stereo not drawn) | > 100 | > 100 | > 100 |  |  | > 100 |  | > 100 | > 100 |  |  |
| Clc1ccc(CCc2ccncn2)c(Cl)c1 | > 100 | > 100 | > 100 | > 100 | > 100 | > 100 | > 100 | > 100 | > 100 | > 100 |  |
| COc1ccccc1-n1c(N)c2c(C)c(-c3ccccc3)[nH]c2nc1=S | > 100 | > 100 | > 100 | > 100 | > 100 | > 100 | > 100 | > 100 |  |  | > 100 |
| CCOc1ccc(/C=C(\Cl)c2ccc(OC)cc2)cc1 | > 100 | > 100 | > 100 | > 100 | > 100 | > 100 | > 100 | > 100 |  | > 100 | > 100 |
| CC/C(=N/O)c1ccc2[nH]c3c(C)cc([N+](=O)[O-])c(C)c3c2c1 | > 100 | > 100 | > 100 | 60.8 | > 100 |  |  | > 100 |  | > 100 | > 100 |
| CC(C)N(C(=O)C12C3C4C1C1C2C3C41I)C(C)C (stereo not drawn) | > 100 |  | > 100 | > 100 |  |  | > 100 | > 100 | > 100 | > 100 | > 100 |
| C/C(=N\NC(=S)NC(CCC(=O)O)C(=O)O)c1cnccn1 (stereo not drawn) | > 100 | > 100 | > 100 |  | > 100 | > 100 | > 100 | > 100 | > 100 | > 100 | > 100 |
| C#CCNC(=O)NCCCCC(NC(C)=O)C(=O)NCc1ccccc1 (stereo not drawn) | > 100 | > 100 | > 100 |  | > 100 | > 100 | > 100 | > 100 | > 100 | > 100 | > 100 |
| COc1cc(C2C(C(=O)Nc3ccc([N+](=O)[O-])cc3)=C(C)NC(C)=C2C(=O)Nc2ccc([N+](=O)[O-])cc2)ccc1O | 30.9 | > 68.6 | > 74.5 | 53.3 | > 74.2 | 34.7 | 64 | 43.3 | > 100 | > 100 | 69.1 |
| Cc1nc(-n2nc(-c3ccccc3)cc2-c2ccccc2)sc1C(=O)/C=C/c1ccc(Cl)c(Cl)c1 | > 100 | 48.2 | > 100 | > 100 |  | 70.3 | 32 | > 100 | > 100 | 73.6 | 30.8 |
| COc1ccccc1-n1c(NN)nc2ccc(Br)cc2c1=O | > 100 | > 100 | > 100 | > 100 | 61.5 | > 100 | > 100 | > 100 | > 100 | > 100 | 92.1 |
| C[C@@H]1O[C@]2(O)[C@@H]3CCCN3S(=O)(=O)CCN2C1=O | > 100 | > 100 |  |  | > 100 | > 100 | > 100 | > 100 | > 100 | > 100 | > 100 |

From PubChem BioAssay (NCI)
